Test system: IFNγ secretion in whole blood stimulated with heat-killed Staphylococcus epidermidis
Assay: in vitro whole blood assay stimulated with Staphylococcus epidermidis, measuring IFNγ
Assay type: cell-based
Details: 24 hours; for inhibitory activity of IFNg secretion resulting from Staphylococcus epidermidis stimulation: IFNγ by ELISA; for IFNγ concentration: at 62.5 nMol test compound, cut from 4500 pg/ml; for inhibition of IFNγ: lowest concentration of 62.5 nMol
From the text: The following experimental work illustrates the invention. This involves an in vitro whole blood assay stimulated with Staphylococcus epidermidis, measuring IFNγ. IFNγ as a key mediator in pathological processes in ocular inflammatory disease, namely age-related macular degeneration (Penfold et al, 2002) and proliferative vitreoretinopathy (El-Ghrably et al, 2001). 1:100 diluted heat-killed Staphylococcus epidermidis in conjunction with various concentrations of test compound (in a stock DMSO solution) was added to a 100-fold volume of whole blood. After 24 hours, whole blood was diluted 1:4 and IFNγ was measured by enzyme-linked immuno-absorptive assay.

## CC(NCCc1ccc(O)cc1)C(O)c1ccc(O)cc1 (racemic) [ritodrine racemate, ritodrine]
  inhibitory activity of IFNg secretion resulting from Staphylococcus epidermidis stimulation: strong inhibitory activity
  IFNγ concentration: 1500 pg/mL
  inhibition of IFNγ: 66%

## CC(C(O)c1ccc(O)cc1)N1CCC(Cc2ccccc2)CC1 (racemic) [ifenprodil erythro racemate, ifenprodil]
  inhibitory activity of IFNg secretion resulting from Staphylococcus epidermidis stimulation: strong inhibitory activity
  IFNγ concentration: 1500 pg/mL
  inhibition of IFNγ: 66%

Source: US20090137686A1, “Treatment of Ophthalmic Diseases” (priority 2005, published 2009)
